# Reference: patent publication US20090075937A1, “LHRH ANTAGONISTS FOR THE TREATMENT OF LOWER URINARY TRACT SYMPTOMS” (AETERNA ZENTARIS GmbH, priority 2007, published 2009)
# Non-standard residues stand in square brackets, D forms with d. Residues, ends and D or L forms follow the SMILES beside them. dPhe(4-Cl) = N[C@H](Cc1ccc(Cl)cc1)C(=O)O; d2Nal = N[C@H](Cc1ccc2ccccc2c1)C(=O)O; dCit = NC(=O)NCCC[C@@H](N)C(=O)O; d3Pal = N[C@H](Cc1cccnc1)C(=O)O
# Columns and labels:
# study subjects [1] = test: IPSS irritative subscore (sum of nocturia, frequency of emptying and urgency to urinate); assay type: in vivo, human; conditions: for IPSS irritative subscore (nocturia, frequency of emptying, urgency to urinate): percentage variation from baseline
# Description: (§1) The results shown are percentage variations from baseline at the beginning of the study (week 0).
# [2] = system: testosterone blood levels; test: Median testosterone blood levels / chemical (hormonal) castration; conditions: for Testosterone [ng/mL] (median): blood level
# Description: Preferably, chemical (hormonal) castration is a testosterone castration and refers to a testosterone blood level of equal or below 1.2 ng/mL, preferably 0.5 ng/mL.
# Study subjects were treated with Cetrorelix pamoate with the following doses according to the following administration schemes: • 60 mg Cetrorelix pamaote administered at week 0 and 30 mg Cetrorelix pamaote administered at week 2 (treatment period) followed by up to 5 months of no treatment (treatment-free period) • 60 mg Cetrorelix pamaote administered at week 0 and 60 mg Cetrorelix pamaote administered at week 2 (treatment period) followed by up to 5 months of no treatment (treatment-free period)
# Study subjects were treated with Cetrorelix acetate with the following doses according to the following administration schemes: • 5 mg Cetrorelix acetate administered at week 0, 1, 2 and 3 (total monthly dose of 20 mg) (treatment period) followed by up to 4 months of no treatment (treatment-free period) • 10 mg Cetrorelix acetate administered at week 0 and 10 mg Cetrorelix acetate administered at week 2 (treatment period) followed by up to 4 months of no treatment (treatment-free period) • 10 mg Cetrorelix acetate administered at week 0, 1, 2 and 3 (total monthly dose of 40 mg) (treatment period) followed by up to 4 months of no treatment (treatment-free period)
# Study subjects were treated with Ozarelix with the following doses according to the following administration schemes: • 15 mg Ozarelix administered at week 0 and 15 mg Ozarelix administered at week 2 (treatment period) followed by up to 4 months of no treatment (treatment-free period)
# study subjects [3] = test: Frequency of emptying: how often the study subjects had to urinate a second time within a 2 hour test period; assay type: in vivo, human
# Description: as §1
# The results shown are mean values, how often the study subjects had to urinate a second time.
# study subjects [4] = test: Nocturia: how often the study subjects got up during the night in order to urinate; assay type: in vivo, human
# Description: as §1
# The results shown are mean values, how often the study subjects had to get up.
# [5] = 2 × 10: 10 mg at week 0 and week 2, Week 0
# [6] = 2 × 10: 10 mg at week 0 and week 2, Week 4
# [7] = 2 × 10: 10 mg at week 0 and week 2, Week 8
# [8] = 2 × 10: 10 mg at week 0 and week 2, Week 12
# [9] = 2 × 10: 10 mg at week 0 and week 2, Week 16
# [10] = 2 × 10: 10 mg at week 0 and week 2, Week 20
# [11] = 4 × 5: 5 mg at week 0, 1, 2 and 3, Week 0
# [12] = 4 × 5: 5 mg at week 0, 1, 2 and 3, Week 4
# [13] = 4 × 5: 5 mg at week 0, 1, 2 and 3, Week 8
# [14] = 4 × 5: 5 mg at week 0, 1, 2 and 3, Week 12
# [15] = 4 × 5: 5 mg at week 0, 1, 2 and 3, Week 16
# [16] = 4 × 5: 5 mg at week 0, 1, 2 and 3, Week 20
# [17] = 4 × 10: 10 mg at week 0, 1, 2 and 3, Week 0
# [18] = 4 × 10: 10 mg at week 0, 1, 2 and 3, Week 4
# [19] = 4 × 10: 10 mg at week 0, 1, 2 and 3, Week 8
# [20] = 4 × 10: 10 mg at week 0, 1, 2 and 3, Week 12
# [21] = 4 × 10: 10 mg at week 0, 1, 2 and 3, Week 16
# [22] = 4 × 10: 10 mg at week 0, 1, 2 and 3, Week 20
# [23] = 5+5+5+5 mg, 10+10 mg and 10+10+10+10 mg schemes, largest difference, n-times mean
smiles,measurement,setting,value
CC(=O)N[C@H](Cc1ccc2ccccc2c1)C(=O)N[C@H](Cc1ccc(Cl)cc1)C(=O)N[C@H](Cc1cccnc1)C(=O)N[C@@H](CO)C(=O)N[C@@H](Cc1ccc(O)cc1)C(=O)N[C@H](CCCNC(N)=O)C(=O)N[C@@H](CC(C)C)C(=O)N[C@@H](CCCNC(=N)N)C(=O)N1CCC[C@H]1C(=O)N[C@H](C)C(N)=O [Cetrorelix acetate] (Ac-[d2Nal][dPhe(4-Cl)][d3Pal]SY[dCit]LRP[dA]-NH2),further decrease in IPSS irritative subscore compared to placebo,"study subjects [1]; 5+5+5+5 mg, 10+10 mg and 10+10+10+10 mg schemes, largest difference",up to 43%
same,"IPSS irritative subscore (nocturia, frequency of emptying, urgency to urinate)",study subjects [1]; [5],0%
same,"IPSS irritative subscore (nocturia, frequency of emptying, urgency to urinate)",study subjects [1]; [6],−25%
same,"IPSS irritative subscore (nocturia, frequency of emptying, urgency to urinate)",study subjects [1]; [7],−33.3%
same,"IPSS irritative subscore (nocturia, frequency of emptying, urgency to urinate)",study subjects [1]; [8],−33.3%
same,"IPSS irritative subscore (nocturia, frequency of emptying, urgency to urinate)",study subjects [1]; [9],−42.9%
same,"IPSS irritative subscore (nocturia, frequency of emptying, urgency to urinate)",study subjects [1]; [10],−29.2%
same,"IPSS irritative subscore (nocturia, frequency of emptying, urgency to urinate)",study subjects [1]; [11],0%
same,"IPSS irritative subscore (nocturia, frequency of emptying, urgency to urinate)",study subjects [1]; [12],−16.7%
same,"IPSS irritative subscore (nocturia, frequency of emptying, urgency to urinate)",study subjects [1]; [13],−25%
same,"IPSS irritative subscore (nocturia, frequency of emptying, urgency to urinate)",study subjects [1]; [14],−28.6%
same,"IPSS irritative subscore (nocturia, frequency of emptying, urgency to urinate)",study subjects [1]; [15],−30.8%
same,"IPSS irritative subscore (nocturia, frequency of emptying, urgency to urinate)",study subjects [1]; [16],−29.7%
same,"IPSS irritative subscore (nocturia, frequency of emptying, urgency to urinate)",study subjects [1]; [17],0%
same,"IPSS irritative subscore (nocturia, frequency of emptying, urgency to urinate)",study subjects [1]; [18],−29.3%
same,"IPSS irritative subscore (nocturia, frequency of emptying, urgency to urinate)",study subjects [1]; [19],−31%
same,"IPSS irritative subscore (nocturia, frequency of emptying, urgency to urinate)",study subjects [1]; [20],−25%
same,"IPSS irritative subscore (nocturia, frequency of emptying, urgency to urinate)",study subjects [1]; [21],−28.6%
same,"IPSS irritative subscore (nocturia, frequency of emptying, urgency to urinate)",study subjects [1]; [22],−25%
same,chemical (hormonal) castration,"[2]; 5+5+5+5 mg, 10+10 mg and 10+10+10+10 mg schemes, conclusion from median testosterone blood levels",successfully prevented
same,Testosterone [ng/mL] (median),[2]; [5],3.27 ng/mL
same,Testosterone [ng/mL] (median),[2]; [6],4.41 ng/mL
same,Testosterone [ng/mL] (median),[2]; [7],3.73 ng/mL
same,Testosterone [ng/mL] (median),[2]; [8],4.45 ng/mL
same,Testosterone [ng/mL] (median),[2]; [9],4.16 ng/mL
same,Testosterone [ng/mL] (median),[2]; [10],4.12 ng/mL
same,Testosterone [ng/mL] (median),[2]; [11],3.42 ng/mL
same,Testosterone [ng/mL] (median),[2]; [12],2.95 ng/mL
same,Testosterone [ng/mL] (median),[2]; [13],3.77 ng/mL
same,Testosterone [ng/mL] (median),[2]; [14],4.11 ng/mL
same,Testosterone [ng/mL] (median),[2]; [15],3.91 ng/mL
same,Testosterone [ng/mL] (median),[2]; [16],3.49 ng/mL
same,Testosterone [ng/mL] (median),[2]; [17],3.41 ng/mL
same,Testosterone [ng/mL] (median),[2]; [18],2.17 ng/mL
same,Testosterone [ng/mL] (median),[2]; [19],3.82 ng/mL
same,Testosterone [ng/mL] (median),[2]; [20],4.32 ng/mL
same,Testosterone [ng/mL] (median),[2]; [21],4.32 ng/mL
same,Testosterone [ng/mL] (median),[2]; [22],4.06 ng/mL
same,"Frequency of emptying (n-times, mean)",study subjects [3]; [5],2.29 n-times
same,"Frequency of emptying (n-times, mean)",study subjects [3]; [6],1.86 n-times
same,"Frequency of emptying (n-times, mean)",study subjects [3]; [7],1.58 n-times
same,"Frequency of emptying (n-times, mean)",study subjects [3]; [8],1.55 n-times
same,"Frequency of emptying (n-times, mean)",study subjects [3]; [9],1.45 n-times
same,"Frequency of emptying (n-times, mean)",study subjects [3]; [10],1.66 n-times
same,"Frequency of emptying (n-times, mean)",study subjects [3]; [11],2.49 n-times
same,"Frequency of emptying (n-times, mean)",study subjects [3]; [12],2.23 n-times
same,"Frequency of emptying (n-times, mean)",study subjects [3]; [13],2.00 n-times
same,"Frequency of emptying (n-times, mean)",study subjects [3]; [14],1.73 n-times
same,"Frequency of emptying (n-times, mean)",study subjects [3]; [15],1.52 n-times
same,"Frequency of emptying (n-times, mean)",study subjects [3]; [16],1.79 n-times
same,"Frequency of emptying (n-times, mean)",study subjects [3]; [17],2.86 n-times
same,"Frequency of emptying (n-times, mean)",study subjects [3]; [18],1.62 n-times
same,"Frequency of emptying (n-times, mean)",study subjects [3]; [19],1.66 n-times
same,"Frequency of emptying (n-times, mean)",study subjects [3]; [20],1.81 n-times
same,"Frequency of emptying (n-times, mean)",study subjects [3]; [21],1.65 n-times
same,"Frequency of emptying (n-times, mean)",study subjects [3]; [22],1.78 n-times
same,decrease in frequency of emptying compared to placebo,study subjects [3]; [23],up to 1.35
same,"Nocturia (n-times, mean)",study subjects [4]; [5],2.69 n-times
same,"Nocturia (n-times, mean)",study subjects [4]; [6],2.00 n-times
same,"Nocturia (n-times, mean)",study subjects [4]; [7],2.06 n-times
same,"Nocturia (n-times, mean)",study subjects [4]; [8],1.97 n-times
same,"Nocturia (n-times, mean)",study subjects [4]; [9],1.97 n-times
same,"Nocturia (n-times, mean)",study subjects [4]; [10],2.16 n-times
same,"Nocturia (n-times, mean)",study subjects [4]; [11],2.57 n-times
same,"Nocturia (n-times, mean)",study subjects [4]; [12],2.09 n-times
same,"Nocturia (n-times, mean)",study subjects [4]; [13],1.94 n-times
same,"Nocturia (n-times, mean)",study subjects [4]; [14],1.85 n-times
same,"Nocturia (n-times, mean)",study subjects [4]; [15],1.79 n-times
same,"Nocturia (n-times, mean)",study subjects [4]; [16],1.85 n-times
same,"Nocturia (n-times, mean)",study subjects [4]; [17],2.63 n-times
same,"Nocturia (n-times, mean)",study subjects [4]; [18],1.79 n-times
same,"Nocturia (n-times, mean)",study subjects [4]; [19],1.78 n-times
same,"Nocturia (n-times, mean)",study subjects [4]; [20],1.75 n-times
same,"Nocturia (n-times, mean)",study subjects [4]; [21],1.87 n-times
same,"Nocturia (n-times, mean)",study subjects [4]; [22],2.16 n-times
same,decrease in nocturia frequency compared to placebo,study subjects [4]; [23],up to 0.71
